# According to ChEMBL document CHEMBL1137864, “End-capping of the modified melanocortin tetrapeptide (p-Cl)Phe-D-Phe-Arg-Trp-NH2 as a route to hMC4R agonists” (Bioorg Med Chem Lett, 2004):
# Assays:
# [1] = target: Melanocyte-stimulating hormone receptor (Homo sapiens, UniProt Q01726); experiment: Agonistic activity against human Melanocortin 1 receptor; assay type: functional
# [2] = target: Melanocortin receptor 3 (Homo sapiens, UniProt P41968); experiment: Agonistic activity against human Melanocortin 3 receptor; assay type: functional
# Chain of Melanocortin receptor 3 (P41968 whole entry): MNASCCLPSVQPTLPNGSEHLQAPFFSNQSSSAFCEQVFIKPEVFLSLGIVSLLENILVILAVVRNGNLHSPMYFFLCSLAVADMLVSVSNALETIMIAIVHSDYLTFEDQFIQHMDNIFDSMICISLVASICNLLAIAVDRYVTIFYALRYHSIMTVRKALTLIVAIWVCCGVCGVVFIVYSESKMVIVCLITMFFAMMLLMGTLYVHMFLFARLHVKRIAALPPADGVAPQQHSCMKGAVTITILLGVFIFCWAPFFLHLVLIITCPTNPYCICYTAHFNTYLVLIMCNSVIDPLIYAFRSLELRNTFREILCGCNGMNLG
# [3] = target: Melanocortin receptor 4 (Homo sapiens, UniProt P32245); experiment: Agonistic activity against human Melanocortin 4 receptor; assay type: functional
# Chain of Melanocortin receptor 4 (P32245 whole entry): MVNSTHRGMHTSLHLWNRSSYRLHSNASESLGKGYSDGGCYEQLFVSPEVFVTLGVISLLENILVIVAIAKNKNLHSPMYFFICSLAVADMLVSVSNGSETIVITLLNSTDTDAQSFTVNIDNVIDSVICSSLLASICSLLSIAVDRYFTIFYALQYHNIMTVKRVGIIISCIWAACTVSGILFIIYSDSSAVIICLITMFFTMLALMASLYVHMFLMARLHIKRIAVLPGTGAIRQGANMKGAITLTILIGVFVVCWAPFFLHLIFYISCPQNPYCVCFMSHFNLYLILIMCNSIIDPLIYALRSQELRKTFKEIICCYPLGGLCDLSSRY
# [4] = target: Melanocortin receptor (M1 and M4) (Homo sapiens) (UniProt P32245+Q01726); experiment: Ratio of EC50 of Melanocortin 4 receptor to that of Melanocortin 1 receptor; assay type: protein assay
# [5] = target: Melanocortin receptor (M3 and M4) (Homo sapiens) (UniProt P32245+P41968); experiment: Ratio of EC50 of Melanocortin 4 receptor to that of Melanocortin 3 receptor; assay type: protein assay
# Chain of Melanocyte-stimulating hormone receptor (Q01726 whole entry): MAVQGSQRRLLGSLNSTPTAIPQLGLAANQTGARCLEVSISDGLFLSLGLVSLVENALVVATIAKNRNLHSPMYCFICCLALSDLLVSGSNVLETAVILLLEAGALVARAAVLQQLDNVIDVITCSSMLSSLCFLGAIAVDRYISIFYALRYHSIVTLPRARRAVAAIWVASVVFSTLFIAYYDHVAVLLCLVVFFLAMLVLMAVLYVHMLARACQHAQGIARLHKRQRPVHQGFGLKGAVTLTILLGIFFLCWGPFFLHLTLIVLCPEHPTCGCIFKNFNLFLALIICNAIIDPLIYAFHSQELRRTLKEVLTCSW
EC50 [1] [nM],EC50 [2] [nM],EC50 [3] [nM],Ratio [4],Ratio [5],Compound
536,473,38.5,14,12,N=C(N)NCCC[C@H](NC(=O)C(Cc1ccccc1)NC(=O)[C@H](Cc1ccc(Cl)cc1)NC(=O)C1CC1)C(=O)N[C@@H](Cc1c[nH]c2ccccc12)C(N)=O (stereo in doubt)
144,34.5,45,3,1,N=C(N)NCCC[C@H](NC(=O)C(Cc1ccccc1)NC(=O)[C@H](Cc1ccc(Cl)cc1)NC(=O)CCCCc1ccccc1)C(=O)N[C@@H](Cc1c[nH]c2ccccc12)C(N)=O (stereo in doubt)
600,757,14.1,43,54,N=C(N)NCCC[C@H](NC(=O)C(Cc1ccccc1)NC(=O)[C@H](Cc1ccc(Cl)cc1)NC(=O)CNC=O)C(=O)N[C@@H](Cc1c[nH]c2ccccc12)C(N)=O (stereo in doubt)
378,1020,39.3,10,26,CSCC(=O)N[C@@H](Cc1ccc(Cl)cc1)C(=O)NC(Cc1ccccc1)C(=O)N[C@@H](CCCN=C(N)N)C(=O)N[C@@H](Cc1c[nH]c2ccccc12)C(N)=O (stereo in doubt)
502,961,68.7,7,14,COCC(=O)N[C@@H](Cc1ccc(Cl)cc1)C(=O)NC(Cc1ccccc1)C(=O)N[C@@H](CCCN=C(N)N)C(=O)N[C@@H](Cc1c[nH]c2ccccc12)C(N)=O (stereo in doubt)
0.05,3,5,0.01,–,N=C(N)NCCC[C@H](NC(=O)C(Cc1ccccc1)NC(=O)C(Cc1ccccc1)NC(=O)[C@H](Cc1c[nH]cn1)NC(=O)CCCC(=O)c1ccccc1)C(=O)N[C@@H](Cc1c[nH]c2ccccc12)C(N)=O (stereo in doubt)
381,145,23.7,16,6,CC(C)(C)C(=O)N[C@@H](Cc1ccc(Cl)cc1)C(=O)NC(Cc1ccccc1)C(=O)N[C@@H](CCCN=C(N)N)C(=O)N[C@@H](Cc1c[nH]c2ccccc12)C(N)=O (stereo in doubt)
856,863,13.7,62,63,C=CCC(=O)N[C@@H](Cc1ccc(Cl)cc1)C(=O)NC(Cc1ccccc1)C(=O)N[C@@H](CCCNC(=N)N)C(=O)N[C@@H](Cc1c[nH]c2ccccc12)C(N)=O (stereo in doubt)
541,992,30,18,33,N=C(N)NCCC[C@H](NC(=O)C(Cc1ccccc1)NC(=O)[C@H](Cc1ccc(Cl)cc1)NC(=O)c1ccncc1)C(=O)N[C@@H](Cc1c[nH]c2ccccc12)C(N)=O (stereo in doubt)
841,859,185,4,5,N=C(N)NCCC[C@H](NC(=O)C(Cc1ccccc1)NC(=O)[C@H](Cc1ccc(Cl)cc1)NC(=O)COc1ccccc1)C(=O)N[C@@H](Cc1c[nH]c2ccccc12)C(N)=O (stereo in doubt)
505,45,12,42,4,C=CCNC(=O)N[C@@H](Cc1ccc(Cl)cc1)C(=O)NC(Cc1ccccc1)C(=O)N[C@@H](CCCNC(=N)N)C(=O)N[C@@H](Cc1c[nH]c2ccccc12)C(N)=O (stereo in doubt)
1210,886,150,8,–,N=C(N)NCCC[C@H](NC(=O)C(Cc1ccccc1)NC(=O)[C@H](Cc1ccc(Cl)cc1)NC(=O)CC(F)(F)F)C(=O)N[C@@H](Cc1c[nH]c2ccccc12)C(N)=O (stereo in doubt)
567,3040,10.5,54,290,N#CCC(=O)N[C@@H](Cc1ccc(Cl)cc1)C(=O)NC(Cc1ccccc1)C(=O)N[C@@H](CCCNC(=N)N)C(=O)N[C@@H](Cc1c[nH]c2ccccc12)C(N)=O (stereo in doubt)
699,43,20,35,2,N=C(N)NCCC[C@H](NC(=O)C(Cc1ccccc1)NC(=O)[C@H](Cc1ccc(Cl)cc1)NC(=O)Cc1ccccc1)C(=O)N[C@@H](Cc1c[nH]c2ccccc12)C(N)=O (stereo in doubt)
349,164,31.3,11,5,N=C(N)NCCC[C@H](NC(=O)C(Cc1ccccc1)NC(=O)[C@H](Cc1ccc(Cl)cc1)NC(=O)C(N)=O)C(=O)N[C@@H](Cc1c[nH]c2ccccc12)C(N)=O (stereo in doubt)
577,313,21,28,15,N=C(N)NCCC[C@H](NC(=O)C(Cc1ccccc1)NC(=O)[C@H](Cc1ccc(Cl)cc1)NC(=O)c1cccnc1)C(=O)N[C@@H](Cc1c[nH]c2ccccc12)C(N)=O (stereo in doubt)

EC50 [1] [nM],EC50 [2] [nM],EC50 [3] [nM],Ratio [4],Ratio [5],Compound
848,86.5,8.5,100,10,CNC(=O)N[C@@H](Cc1ccc(Cl)cc1)C(=O)NC(Cc1ccccc1)C(=O)N[C@@H](CCCN=C(N)N)C(=O)N[C@@H](Cc1c[nH]c2ccccc12)C(N)=O (stereo in doubt)
867,553,88.5,10,6,CC(=O)N[C@@H](Cc1ccc(Cl)cc1)C(=O)NC(Cc1ccccc1)C(=O)N[C@@H](CCCN=C(N)N)C(=O)N[C@@H](Cc1c[nH]c2ccccc12)C(N)=O (stereo in doubt)
892,644,18.7,48,34,N=C(N)NCCC[C@H](NC(=O)C(Cc1ccccc1)NC(=O)[C@H](Cc1ccc(Cl)cc1)NC(=O)c1cccs1)C(=O)N[C@@H](Cc1c[nH]c2ccccc12)C(N)=O (stereo in doubt)
441,460,155,3,3,CCCCC(=O)N[C@@H](Cc1ccc(Cl)cc1)C(=O)NC(Cc1ccccc1)C(=O)N[C@@H](CCCN=C(N)N)C(=O)N[C@@H](Cc1c[nH]c2ccccc12)C(N)=O (stereo in doubt)
13,170,59.5,0.1,0.7,CC(=O)N[C@@H](Cc1c[nH]cn1)C(=O)NC(Cc1ccccc1)C(=O)NC(Cc1ccccc1)C(=O)N[C@@H](CCCN=C(N)N)C(=O)N[C@@H](Cc1c[nH]c2ccccc12)C(N)=O (stereo in doubt)
555,1340,168,3,8,N=C(N)NCCC[C@H](NC(=O)C(Cc1ccccc1)NC(=O)[C@H](Cc1ccc(Cl)cc1)NC(=O)c1c(F)c(F)c(F)c(F)c1F)C(=O)N[C@@H](Cc1c[nH]c2ccccc12)C(N)=O (stereo in doubt)
23,41,58,0.4,0.7,N=C(N)NCCC[C@H](NC(=O)C(Cc1ccccc1)NC(=O)[C@H](Cc1ccc(Cl)cc1)NC(=O)CCCC(=O)c1ccccc1)C(=O)N[C@@H](Cc1c[nH]c2ccccc12)C(N)=O (stereo in doubt)
597,1010,14.5,41,70,N=C(N)NCCC[C@H](NC(=O)C(Cc1ccccc1)NC(=O)[C@H](Cc1ccc(Cl)cc1)NC(=O)CC(N)=O)C(=O)N[C@@H](Cc1c[nH]c2ccccc12)C(N)=O (stereo in doubt)
2160,1670,4530,0.5,0.4,N=C(N)NCCC[C@H](NC(=O)C(Cc1ccccc1)NC(=O)[C@H](Cc1ccc(Cl)cc1)NS(=O)(=O)C(F)(F)F)C(=O)N[C@@H](Cc1c[nH]c2ccccc12)C(N)=O (stereo in doubt)
565,497,123,5,4,CC(C)C(=O)N[C@@H](Cc1ccc(Cl)cc1)C(=O)NC(Cc1ccccc1)C(=O)N[C@@H](CCCN=C(N)N)C(=O)N[C@@H](Cc1c[nH]c2ccccc12)C(N)=O (stereo in doubt)
803,827,106,8,8,CCCC(=O)N[C@@H](Cc1ccc(Cl)cc1)C(=O)NC(Cc1ccccc1)C(=O)N[C@@H](CCCN=C(N)N)C(=O)N[C@@H](Cc1c[nH]c2ccccc12)C(N)=O (stereo in doubt)
2160,175,42,51,4,CN(C)C(=O)N[C@@H](Cc1ccc(Cl)cc1)C(=O)NC(Cc1ccccc1)C(=O)N[C@@H](CCCN=C(N)N)C(=O)N[C@@H](Cc1c[nH]c2ccccc12)C(N)=O (stereo in doubt)
985,92.5,146,7,0.6,N=C(N)NCCC[C@H](NC(=O)C(Cc1ccccc1)NC(=O)[C@H](Cc1ccc(Cl)cc1)NC(=O)Nc1ccccc1)C(=O)N[C@@H](Cc1c[nH]c2ccccc12)C(N)=O (stereo in doubt)
41,140,96,0.4,1.5,N=C(N)NCCC[C@H](NC(=O)C(Cc1ccccc1)NC(=O)[C@H](Cc1ccc(Cl)cc1)NC(=O)CCC(=O)c1cc(F)cc(F)c1)C(=O)N[C@@H](Cc1c[nH]c2ccccc12)C(N)=O (stereo in doubt)
785,2640,137,6,19,COP(=O)(N[C@@H](Cc1ccc(Cl)cc1)C(=O)NC(Cc1ccccc1)C(=O)N[C@@H](CCCN=C(N)N)C(=O)N[C@@H](Cc1c[nH]c2ccccc12)C(N)=O)OC (stereo in doubt)
